In assay [1] the target is T1, APOL1 G1 (Homo sapiens, UniProt O14791, I384M/S342G).
T1 sequence (O14791 28-398 S342G/I384M): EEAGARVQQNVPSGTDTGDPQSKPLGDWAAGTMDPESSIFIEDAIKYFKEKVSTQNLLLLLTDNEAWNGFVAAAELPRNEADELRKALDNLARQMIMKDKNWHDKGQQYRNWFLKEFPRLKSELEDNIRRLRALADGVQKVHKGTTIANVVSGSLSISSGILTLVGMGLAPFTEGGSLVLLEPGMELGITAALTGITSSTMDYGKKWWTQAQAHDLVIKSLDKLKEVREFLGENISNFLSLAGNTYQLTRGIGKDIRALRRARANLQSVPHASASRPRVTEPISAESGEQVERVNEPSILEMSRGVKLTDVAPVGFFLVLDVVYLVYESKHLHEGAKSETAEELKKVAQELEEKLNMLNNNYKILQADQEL
In words: Trypanosoma brucei brucei Lysis Assay Using APOL1 Recombinant Protein (AlamarBlue viability readout). The class given is cell-based. The settings on record: IP50 = IC50 for cell proliferation; Trypanosome Assay. From the text:
Trypanosoma brucei brucei is a blood stream parasite to which human, gorillas, and baboons are immune due to the presence of the APOL1 protein in their HDL particles. The protein is uptaken by the parasite via the TbHpHb receptor located in its flagellar pocket and is bonded by the Hpr protein contained in the HDL particles which triggers the receptor endocytosis by the parasite.
Following endocytosis, the formed vesicle containing the HDL particle matures from early to late endosome, and subsequently to lysosome. The concomitant pH change in the lumen of the vesicle triggers the insertion of the APOL1 protein into the membrane of the late endosome/lysosome and hereby triggers lysosomal membrane permeabilization and as a further downstream event, trypanosome lysis. Trypanosoma brucei brucei is sensitive to lysis by all three APOL1 variants (G0, G1, and G2).
The Trypanosoma brucei brucei lysis assay is a lysis assay of the parasite using recombinant APOL1 protein variant followed by a fluorescent detection method of viability by the addition of AlamarBlue reagent to the assay well, a general metabolic redox indicator (AlamarBlue assay).
Briefly, the AlamarBlue active compound, resazurin, a blue, water soluble, non-toxic and cell permeable molecule, which can be followed by absorbance, is reduced by various metabolic pathways into resorufin, a red compound which can be followed by either absorbance or fluorescence. The assay allows the calculation of the percent viability (percent of living Trypanosomes remaining in each well) at the end of a lysis relative to the untreated condition by interpolation of fluorescent values (FLU) on a standard curve with a known amount of seeded trypanosome/well.
Trypanosoma brucei brucei (ATCC, Cat. No. PRA-382) • o Lister 427 VSG 221 bloodstream form.
Assay Ready Plates (ARPs) ∘ ARPs comes in two formats: • […] final top concentration with a 2.5 fold dilution down. • 5 mM final top concentration with a 3 fold dilution down. • ▪ Both have a 10 point Dose response. • ▪ 0.1% DMSO final in the Black Assay Plate. • ▪ Compounds are diluted 1000 fold in the Black Assay Plate. • ▪ Each plate is designed for 14 compounds in duplicate. ∘ In the final Black Assay Plate: […]
A general note: Resazurin is reduced to fluorescent resorufin, in cell work by metabolically active cells.

Assay [2] deals with T1, APOL1 G1. Briefly: MultiTox-Fluor Multiplex Cytotoxicity Assay, tet-inducible APOL1 G1 T-REx-HEK293 cells. In kind it is cell-based. As to conditions: Multi-Tox Assay; for IC50: IP50 = IC50 for cell proliferation, APOL1 variant not given; for IC90: APOL1 variant (G0/G1/G2) of the HEK293 cells not given, read-out: Multi-Tox Assay IC90. Also noted: expressed in transfected cells; host or cells: T-REx HEK293, clone G1 DC3.25 (pAAVS1-Puro-APOL1 G1). A digest of the protocol: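 T-REx-HEK293 cells carrying tet-inducible APOL1 G1 induced with 50 ng/mL tet alongside compound (top 10 µM, 10-point 3-fold, duplicate) for 24 h at 37 °C. MultiTox-Fluor dead/live protease fluorescence ratio read after 30 min; normalized to no-tet (100% viability) and tet-treated (0%) controls, then curve-fitted.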

A value given as a limit tells only on which side of the number the result lay.

Turning to “(2S,6S)-2-chloro-2'-cyclopropyl-6'-methyl-spiro[4,5-dihydrothieno[2,3-c]pyran-7,4'-piperidine] [Compound 211]”, on APOL1 G1 [1], the IC50 lay within 50 to 500 nM. Further, at APOL1 G1 [2], the IC50 was < 50 nM and the IC90 fell in the range of 50 to 500 nM.

Consider “(2S)-2-chloro-2'-methyl-6'-(1-methylpyrazol-4-yl)spiro[4,5-dihydrothieno[2,3-c]pyran-7,4'-piperidine]-4-ol [Compound 175]”, for which the IC50 on APOL1 G1 [1] and on APOL1 G1 [2] was < 50 nM each time. Also, on APOL1 G1 [2], the concentration for an effect of 90% (IC90) was < 50 nM.

On to “2-chloro-2'-ethyl-6'-(1-methyltriazol-4-yl)spiro[4,5-dihydrothieno[2,3-c]pyran-7,4'-piperidine] [Compound 186]”, for which the concentration for half-maximal inhibition (IC50) on APOL1 G1 [1] was in the range of 50 to 500 nM. For the same substance, on APOL1 G1 [2], the half-maximal inhibitory concentration (IC50) is < 50 nM and the IC90 fell in the range of 50 to 500 nM.

As to “2'-ethyl-6'-(1-methyltriazol-4-yl)-2-(trifluoromethyl)spiro[4,5-dihydrothieno[2,3-c]pyran-7,4'-piperidine] [Compound 187]”, on APOL1 G1 [1], the IC50 lay in the range of 50 to 500 nM. In addition, at APOL1 G1 [2], the IC50 is < 50 nM and the IC90 is < 50 nM.

In general, IC50 refers to the concentration at which inhibition is half-maximal. As a reminder, the IC90 is the concentration at which the effect reaches the 90% level.

For the origin of these results see EP4810040A2, “INHIBITORS OF APOL1 AND METHODS OF USING SAME” (priority 2020, dated 2022).
